Assay results from patent US7943795B2, “Vitamin D receptor modulators” (Eli Lilly and Company, priority 2004, dated 2011).

How the values were obtained:
[1] = system: KERtr cells (Human skin keratinocyte); test: Keratinocyte proliferation assay; format: cell-based; details: 72 hr, BrdU incorporation, read-out: Keranocyte Proliferation IC50
Protocol: 6. The keratinocyte proliferation assay is described in the “Assay” section of the Description, infra.
The Keratinocyte Proliferation Assay
This Assay is indicative for the treatment of psoriasis. An acceptable test result is IC50 value of less than or equal to 300 nM. Preferred assay results are IC50 values of less than 100 nM.
KERtr cells (Human skin keratinocyte are transformed with a retrovirus vector, obtained from ATCC, then are plated in 96-well flat-bottomed plates (3000 cells/well) in 100 μl keratinocyte serum free medium supplemented with bovine pituitary extract in the absence of EGF (Life Technologies, Rockville, Md.) and are incubated at 37° C. for two days. The cells are treated with various concentrations of VDR ligands (ten-fold serial dilution from 10,000 nM to 0.1 nM in triplicate), dissolved in 100 μl keratinocyte serum free medium supplemented with bovine pituitary extract in the absence of EGF and are incubated at 37° C. for 72 hr. BrdU (5-bromo-2′-deoxyuridine) incorporation is analyzed as a measure of DNA replication (Cell proliferation ELISA kit, Roche Diagnostics, Indianapolis, Ind.) and absorbance is measured at […]. Potency values (IC50) values were determined as the concentration (nM) of compound that elicited a half-maximal response.

[2] = system: IL-10 production in PBMCs; test: IL-10 induction assay; format: cell-based; details: PBMC; TPA/PHA stimulated human PBMCs, IL-10 in supernatant by immunoassay
Text: 7. The IL-10 induction assay is described in the “Assay” section of the Description, infra.
The IL-10 Induction Assay
This is an in vitro efficacy assay for psoriasis, abscess and adhesion. Psoriasis involves both keratinocytes and immune cells. IL-10 is a unique cytokine because it is anti-inflammatory and immunosuppressive. This assay tells us whether a VDRM is able to function as an agonist in PBMCs (primary blood mononuclear cells) or not. A lower EC50 value is desirable in this assay since a compound with a lower EC50 value will be a better agonist in PBMCs. An acceptable test result is an EC50 value of less than 200 nM. Preferred assay results are EC50 values of less than 100 nM.
Isolation of Peripheral Blood Mononuclear Cells (PBMCs):
Collect 50 ml of human blood and dilute with media, RPMI-1640. Add diluted blood to sterile tubes with ficol. Centrifuge the tubes. Discard the top layer and collect the cells from middle layer. Divide all cells into four tubes and add media. Centrifuge. Aspirate off media and resuspend the cells. Collect all cells. Centrifuge at 1200 rpm for 10 m. Resuspend the cells in RPMI-1640 with 2% FBS and then count cells.
Stimulation of PBMC: Prepare TPA in DMSO. Dissolve PHA in water. Plate TPA/PHA treated PBMCs in well plates. Incubate the cells.
Treatment: Prepare all compound dilutions in plain RPMI-1640 media. Add diluted compound and incubate. Sample Collection and assay: Remove all the cells by centrifugation and assay the supernatant for IL-10 by immunoassay using anti-human IL-10 antibody coated beads, as described by the manufacturer (Linco Research Inc., St. Charles, Mo.).

With CCC(CC)(c1ccc(OCC(O)C(C)(C)C)c(C)c1)c1ccc2cc(C(=O)O)ccc2c1 (racemic) [Ex. 2, 6-{1-Ethyl-1-[4-(2-hydroxy-3,3-dimethyl-butoxy)-3-methyl-phenyl]-propyl}-naphthalene-2-carboxylic acid] the IC50 [1] was 47 nM and the IC50 [2] was 49 nM.
